Here are results for nine molecules from patent publication US20230331672A1, “6-METHOXY-2-PHENETHYL ISOINDOLINE-1-ONE DERIVATIVE AND COMPOSITION FOR TREATING NEUROLOGICAL DISORDERS, COMPRISING SAME” (CNG BIO CO., LTD., priority 2020, published 2023).

The test system of one assay is nerve growth factor (NGF) in C6 glioma cells. As to the kind of experiment: Ability to promote increase of nerve growth factor (NGF) produced in cell medium, ELISA. Type of assay: cell-based, Rat. The note with it: 10 μM, 24 hours, FIG. 22. How it is done: Rat astrocyte-derived C6 glioma cells were dispensed in DMEM culture solution at a concentration of 1×10^5 cells/well in a 24 well plate and stabilized overnight, and then treated with the compounds of the present invention at a concentration of 10 μM, and reacted in a 37° C. incubator for 24 hours. The treated medium was collected and centrifuged, and then absorbance was measured using an enzyme linked immunoassay kit (ELISA kit).
In general terms: An ELISA detects its analyte on a solid surface through an enzyme-linked reagent.
Turning to `COc1cc2c(c(O)c1Br)CN(CCc1ccc(C(F)(F)F)cc1)C2=O` [Formula 6, 5-bromo-4-hydroxy-6-methoxy-2-(4-(trifluoromethyl)phenethyl)isoindolin-1-one], the “nerve growth factor produced in the cell medium” value (“nerve growth factor produced” for short) was “significantly excellent”. Turning to `COc1cc2c(c(O)c1Br)CN(CCc1ccc(F)cc1)C2=O` [Formula 1, 5-bromo-2-(4-fluorophenethyl)-4-hydroxy-6-methoxyisoindolin-1-one], the “nerve growth factor produced” value was “significantly excellent”. Turning to `C=Cc1c(OC)cc2c(c1OCOC)CN(CCc1ccc(OC)cc1)C2=O` [Formula 13, 6-methoxy-4-(methoxymethoxy)-2-(4-methoxyphenethyl)-5-vinylisoindolin-1-one], the “nerve growth factor produced” value is “significantly excellent”. In the case of `C=Cc1c(OC)cc2c(c1O)CN(CCc1ccc(C(F)(F)F)cc1)C2=O` [Formula 20, 4-hydroxy-6-methoxy-2-(4-(trifluoromethyl)phenethyl)-5-vinylisoindolin-1-one], the “nerve growth factor produced” value was “significantly excellent”.

The test system of another assay is NO production in BV2 cells (microglia). As to the kind of experiment: NO production in LPS-stimulated BV2 cells (Griess reaction), antineuritic activity. Type of assay: cell-based. Conditions: 10 μM, 100 ng/ml LPS for 24 hours, nitrite by Griess reaction, FIG. 26. As for the experimental part:
BV2 cells (microglia) were dispensed in DMEM culture solution at a concentration of 6×10^4 cells/well in a 96 well plate, and then treated with the compounds of the present invention at a concentration of 10 μM, and incubated for 24 hours. After 24 hours, each sample was treated with a concentration of 10 μM, reacted for 1 hour, and then stimulated with 100 ng/ml of LPS for 24 hours. The production of nitrite, a soluble oxidation product of NO (nitric oxide), was measured in the culture medium through the Griess reaction.
Take `C=Cc1c(OC)cc2c(c1O)CN(CCc1ccc(OC)cc1)C2=O` [Formula 21]: the “NO production compared to untreated control group” value is recorded as “significantly reduced”. On to `COc1cc2c(c(O)c1CCCO)CN(CCc1ccccc1)C2=O` [Formula 17, 4-hydroxy-5-(3-hydroxypropyl)-6-methoxy-2-phenethyl isoindolin-1-one], for which the “NO production compared to untreated control group” value is given as “significantly reduced”.

Turning to `COc1ccc(CCN2Cc3c(cc(OC)c(CCO)c3O)C2=O)cc1` [Formula 15, 4-hydroxy-5-(2-hydroxyethyl)-6-methoxy-2-(4-methoxyphenethyl)isoindolin-1-one], the “NO production compared to untreated control group” value is given as “significantly reduced”. For `COc1cc2c(c3c1CCO3)CN(CCc1ccccc1)C2=O` [Formula 19, 4-methoxy-7-phenethyl-7,8-dihydro-2H-furo[2,3-e]isoindole-6(3H)-1], the “NO production compared to untreated control group” value is “significantly reduced”. Turning to `C=Cc1c(OC)cc2c(c1OCOC)CN(CCc1ccc(OC)cc1)C2=O` [Formula 13, 6-methoxy-4-(methoxymethoxy)-2-(4-methoxyphenethyl)-5-vinylisoindolin-1-one], the “NO production compared to untreated control group” value is listed as “significantly reduced”. In the case of `COCOc1c(Br)c(OC)cc2c1CN(CCc1ccc(OC)cc1)C2=O` [Formula 12, 5-bromo-6-methoxy-4-(methoxymethoxy)-2-(4-methoxyphenethyl)isoindolin-1-one], the “NO production compared to untreated control group” value was “significantly reduced”.
